According to patent EP2949653A1, “ISOXAZOLE DERIVATIVES AS LEUKOTRIENE BIOSYNTHESIS INHIBITORS” (Banoglu, Erden, priority 2014, dated 2015):

Assays:
[1] = tested on: 5-LO mediated product formation; experiment: 5-LO mediated product formation in intact neutrophils stimulated with A23187 (cell-based); parameters: species or system human; settings: for activity at 1 µM / activity at 10 µM: PMNL, human neutrophils, 2.5 µM A23187, means ± SE, n = 3-6; for activity at 1 µM: remaining activity at 1 µM inhibitor, read-out: 5-LO mediated product formation in intact neutrophils (PMNL) (% of control) at 1 µM; for activity at 10 µM: remaining activity at 10 µM inhibitor, read-out: 5-LO mediated product formation in intact neutrophils (PMNL) (% of control) at 10 µM; for IC50: Neutrophil, intact human neutrophils stimulated with 2.5 µM A23187, mean ± SE, n = 3-4, read-out: Inhibition of purified 5-LO activity IC50 (µM) cell based
Method: (§1) Cell based and cell-free assays carried out in biological studies, immunofluorescence microscopy analysis and zymosan-induced peritonitis in mice are performed as described hereinabove (Pegola, C. and et al., British J. Pharmacology, 2014, D01:10.1111/bph.12625). In the cell based assays (intact neutrophils or monocytes), 5-LO mediated product formation is started, after pre-incubation with test compounds (or control DMSO) for 15 min. at 37 °C, with addition of Ca-ionophore A23187 (2.5 µM) to the fresh 5 x 10^6 neutrophils or monocytes suspended in 1 ml of PGC buffer (phosphate buffered saline (PBS) solution containing 1 mg ml^-1 glucose and 1mM CaCl2, pH 7.4). After the incubation for 10 min. at 37 °C, the reaction is ended with addition of 1 ml of methanol, and 30 µL 1 N HCl, 200 ng prostaglandin B1 and 500 µL PBS are added to the mixture. In cell-free assays (isolated 5-LO and cell homogenates), human recombinant 5-LO protein or 40,000g supernatant is added to 1 ml of 5-LO reaction mixture (PBS, pH 7.4, 1 mM EDTA, 1 mM ATP), and then incubated with test compounds (or control DMSO) for 10 min. at 4°C, heated to 37 °C and 2 mM CaCl2 as well as AA at certain concentrations are added. The reaction is ended as described for the cell-based assays. Resulting 5-LO mediated products are extracted and analysed by the known method of high pressure liquid chromatography (HPLC) (Pergola, C. Proc Natl. Acad. Sci. U.S.A. 2008, 105, 19881). 5-LO mediated product formation (LTB4 and all trans isomers, and 5 (S)-hydro(pero)xy-6-trans-8, 11, 14-cis-eicosatetraenoic acid, 5-H(p)ETE) is expressed as ng per 10^6 cell. Cysteinyl-LTs have not been analyzed because that the amount of C4, D4 and E4 and LTB4 oxidation products are below the detection limit.
(§2) Compounds were tested in intact human neutrophils stimulated with 2.5 µM A23187 under cell based conditions and on purified 5-LO under cell free conditions. ^aData are given as remaining activity as a percentage of control (100%) at 10 µM or 1 µM inhibitor concentrations (means ± SE, n = 3-6).
Compound 9hj inhibited 5-LO mediated product formation with IC50 of 60 nM in human neutrophils. Neutrophils are stimulated with Ca-ionophore A23187 (2.5 µM), without the addition of exogenous arachidonic acid (AA), after pre-incubation with 9hj or vehicle (0.1 % DMSO). 100% controls correspond to 275.7 ng mL^-1 of 5-LO mediated products (Figure 1).
100% controls correspond to 328.97 ng mL^-1 of 5-LO mediated products.

purified 5-LO [2] = molecular target: T1, purified 5-LO (Homo sapiens, UniProt P09917); experiment: Purified / human recombinant 5-LO activity (cell-free); format: biochemical; settings: purified 5-LO under cell free conditions; mean ± SE, n = 3-4; read-out: Inhibition of purified 5-LO activity IC50 (µM) cell-free
T1 sequence (P09917 1-674): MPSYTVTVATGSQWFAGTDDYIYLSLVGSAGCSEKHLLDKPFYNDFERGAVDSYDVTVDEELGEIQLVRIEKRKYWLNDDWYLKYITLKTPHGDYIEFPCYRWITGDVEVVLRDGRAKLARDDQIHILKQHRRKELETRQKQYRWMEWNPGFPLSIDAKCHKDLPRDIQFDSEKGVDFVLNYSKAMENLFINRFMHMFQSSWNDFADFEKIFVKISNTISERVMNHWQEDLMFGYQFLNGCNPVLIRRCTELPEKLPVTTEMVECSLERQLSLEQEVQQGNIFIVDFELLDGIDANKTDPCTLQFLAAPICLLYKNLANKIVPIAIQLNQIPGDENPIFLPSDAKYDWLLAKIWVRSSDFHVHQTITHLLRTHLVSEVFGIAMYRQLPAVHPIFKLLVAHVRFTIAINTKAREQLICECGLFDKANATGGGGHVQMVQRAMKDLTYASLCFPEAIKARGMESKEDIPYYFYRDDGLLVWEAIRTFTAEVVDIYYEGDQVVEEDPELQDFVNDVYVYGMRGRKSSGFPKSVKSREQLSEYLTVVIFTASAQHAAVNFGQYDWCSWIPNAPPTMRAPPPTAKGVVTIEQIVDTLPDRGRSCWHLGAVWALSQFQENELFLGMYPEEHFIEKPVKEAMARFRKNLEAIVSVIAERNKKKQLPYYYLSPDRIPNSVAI
Method: as §1, §2
9hj was added 15 min before addition of 2 mM Ca^2+ plus 3 µM, 10 µM and 30 µM AA. 100% controls correspond to 200.35 ng mL^-1 for 3 µM AA, 514.36 ng mL^-1 for 10 µM AA and 537.73 ng mL^-1 for 30 µM AA.

purified 5-LO [3] = molecular target: T1, purified 5-LO; experiment: as above; format: biochemical; settings: remaining 5-LO activity (percentage of uninhibited control) at 30 µM test compound

| Structure (SMILES) | IC50 [1] [µM] | IC50 (purified 5-LO [2]) [µM] | remaining activity at 30 µM (purified 5-LO [3]) [%] | activity at 1 µM [1] [%] | activity at 10 µM [1] [%] |
| --- | --- | --- | --- | --- | --- |
| CCOC(=O)c1noc(-c2ccc(OCc3ccccc3C)cc2)c1-c1ccc(Cl)cc1 [Compound 7aj, Ethyl 4-(4-chlorophenyl)-5-(4-((2-methylbenzyl)oxy)phenyl)isoxazole-3-carboxylate] | – | – | – | 85.2 ± 0.7 | 71.9 ± 10.3 |
| CCOC(=O)c1noc(-c2ccc(OCc3cccc(F)c3)cc2)c1-c1ccc(Cl)cc1 [Compound 7bj, Ethyl 4-(4-chlorophenyl)-5-(4-((3-fluorobenzyl)oxy)phenyl)isoxazole-3-carboxylate] | – | – | – | 66.1 ± 14.3 | 55.3 ± 12.1 |
| CCOC(=O)c1noc(-c2ccc(OCc3ccc(C)cc3)cc2)c1-c1ccc(Cl)cc1 [Compound 7cj, Ethyl 4-(4-chlorophenyl)-5-(4-((4-methylbenzyl)oxy)phenyl)isoxazole-3-carboxylate] | – | – | – | 78.3 ± 16.2 | 61.4 ± 12.4 |
| CCOC(=O)c1noc(-c2ccc(OCc3ccccc3C)cc2)c1-c1cccc(Cl)c1 [Compound 8aj, Ethyl 4-(3-chlorophenyl)-5-(4-((2-methylbenzyl)oxy)phenyl)isoxazole-3-carboxylate] | – | – | – | 88 ± 10.2 | 83.4 ± 16.2 |
| CCOC(=O)c1noc(-c2ccc(OCc3cccc(F)c3)cc2)c1-c1cccc(Cl)c1 [Compound 8bj, Ethyl 4-(3-chlorophenyl)-5-(4-((3-fluorobenzyl)oxy)phenyl)isoxazole-3-carboxylate] | – | – | – | 90.6 ± 11.5 | 80.8 ± 11.8 |
| Cc1ccccc1COc1ccc(-c2onc(C(=O)O)c2-c2ccc(Cl)cc2)cc1 [Compound 9aj, 4-(4-Chlorophenyl)-5-(4-((2-methylbenzyl)oxy)phenyl)isoxazole-3-carboxylic acid] | 1.7 ± 0.47 | 0.48 ± 0.03 | – | 74.5 ± 8.6 | 13.1 ± 3.9 |
| N#Cc1cccc(COc2ccc(-c3onc(C(=O)O)c3-c3ccc(Cl)cc3)cc2)c1 [Compound 9dj, 4-(4-Chlorophenyl)-5-(4-((3-cyanobenzyl)oxy)phenyl)isoxazole-3-carboxylic acid] | 4.13 ± 0.33 | 16.3 ± 5.95 | – | 70 ± 9.14 | 6.91 ± 3.92 |
| Cc1cc(OCc2cccc(C#N)c2)ccc1-c1onc(C(=O)O)c1-c1ccc(Cl)cc1 [Compound 9dk, 4-(4-Chlorophenyl)-5-(4-((3-cyanobenzyl)oxy)-2-methylphenyl)isoxazole-3-carboxylic acid] | 2.36 ± 0.32 | 5.01 ± 1.38 | – | 77.4 ± 13.2 | 0.42 ± 0.21 |
| O=C(O)c1noc(-c2ccc(OCc3ccccn3)cc2)c1-c1ccc(Cl)cc1 [Compound 9gj, 4-(4-Chlorophenyl)-5-(4-(pyridin-2-ylmethoxy)phenyl)isoxazole-3-carboxylic acid] | 4.09 ± 0.12 | 7.39 ± 2.45 | – | 82.1 ± 15.2 | 21.3 ± 8.34 |
| Cc1ccccc1COc1ccc(-c2onc(C(=O)O)c2-c2cccc(Cl)c2)cc1 [Compound 10aj, 4-(3-Chlorophenyl)-5-(4-((2-methylbenzyl)oxy)phenyl)isoxazole-3-carboxylic acid] | 2.08 ± 0.33 | 0.5 ± 0.03 | – | 84.5 ± 9.1 | 0.7 ± 0.7 |
| O=C(O)c1noc(-c2ccc(OCc3cccc(F)c3)cc2)c1-c1cccc(Cl)c1 [Compound 10bj, 4-(3-Chlorophenyl)-5-(4-((3-fluorobenzyl)oxy)phenyl)isoxazole-3-carboxylic acid] | 1.64 ± 0.11 | 0.38 ± 0.03 | – | 66.7 ± 8.5 | 8.4 ± 5.1 |

More lines, main results first:

| IC50 [1] [µM] | IC50 (purified 5-LO [2]) [µM] | remaining activity at 30 µM (purified 5-LO [3]) [%] | Structure (SMILES) | activity at 1 µM [1] [%] | activity at 10 µM [1] [%] |
| --- | --- | --- | --- | --- | --- |
| 1.29 ± 0.61 | 0.38 ± 0.04 | – | O=C(O)c1noc(-c2ccc(OCc3cccc(F)c3)cc2)c1-c1ccc(Cl)cc1 [Compound 9bj, 4-(4-Chlorophenyl)-5-(4-((3-fluorobenzyl)oxy)phenyl)isoxazole-3-carboxylic acid] | 52.3 ± 8.3 | 19.6 ± 9.5 |
| 1.4 ± 0.09 | 5.94 ± 0.36 | – | Cc1ccc(COc2ccc(-c3onc(C(=O)O)c3-c3ccc(Cl)cc3)cc2)cc1 [Compound 9cj, 4-(4-Chlorophenyl)-5-(4-((4-methylbenzyl)oxy)phenyl)isoxazole-3-carboxylic acid] | 55.8 ± 4.31 | 15.7 ± 4.53 |
| 1.2 ± 0.11 | > 30 | 53 | Cc1ccc(COc2ccc(-c3onc(C(=O)O)c3-c3ccc(Cl)cc3)c(C)c2)cc1 [Compound 9ck, 4-(4-Chlorophenyl)-5-(2-methyl-4-((4-methylbenzyl)oxy)phenyl)isoxazole-3-carboxylic acid] | 51 ± 6.68 | 2.26 ± 1.86 |
| 1.2 ± 0.23 | 6.11 ± 0.9 | – | O=C(O)c1noc(-c2ccc(OCc3ccccc3Cl)cc2)c1-c1ccc(Cl)cc1 [Compound 9ej, 5-(4-((2-chlorobenzyl)oxy)phenyl)-4-(4-chlorophenyl)isoxazole-3-carboxylic acid] | 65.7 ± 5.9 | 5.1 ± 1.46 |
| 1.45 ± 0.09 | > 30 | 51 | Cc1cc(OCc2ccccc2Cl)ccc1-c1onc(C(=O)O)c1-c1ccc(Cl)cc1 [Compound 9ek, 5-(4-((2-Chlorobenzyl)oxy)-2-methylphenyl)-4-(4-chlorophenyl)isoxazole-3-carboxylic acid] | 54.9 ± 6.46 | 2.86 ± 2.59 |
| 0.77 ± 0.19 | 6.04 ± 0.72 | – | O=C(O)c1noc(-c2ccc(OCc3ccccc3C(F)(F)F)cc2)c1-c1ccc(Cl)cc1 [Compound 9fj, 4-(4-Chlorophenyl)-5-(4-((2-(trifluoromethyl)benzyl)oxy)phenyl)isoxazole-3-carboxylic acid] | 52.8 ± 5.94 | 5.5 ± 2.21 |
| 0.82 ± 0.17 | > 30 | 62 | Cc1cc(OCc2ccccc2C(F)(F)F)ccc1-c1onc(C(=O)O)c1-c1ccc(Cl)cc1 [Compound 9fk, 4-(4-Chlorophenyl)-5-(2-methyl-4-((2-(trifluoromethyl)benzyl)oxy)phenyl)isoxazole-3-carboxylic acid] | 44 ± 10.3 | 3.48 ± 3.05 |
| 0.82 ± 0.19 | 1.12 ± 0.14 | – | Cc1cc(OCc2cccc(F)c2)ccc1-c1onc(C(=O)O)c1-c1cccc(Cl)c1 [Compound 10bk, 4-(3-Chlorophenyl)-5-(4-((3-fluorobenzyl)oxy)-2-methylphenyl)isoxazole-3-carboxylic acid] | 48.6 ± 7.9 | 9.8 ± 3.6 |
